Data reported in patent US20240051985A1, “METTL3 MODULATORS” (ACCENT THERAPEUTICS, INC., priority 2020, published 2024).

target: METTL3/METTL14 (Homo sapiens, UniProt Q86U44); assay: METTL3-14 standard enzyme assay (3H-SAM flashplate); details: Table 4; METTL3 biochemical assay
Method in brief: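 Radiometric methyltransferase read-out: after quenching with excess unlabelled SAM (15 μM), biotinylated RNA was captured on streptavidin flashplates (2 h, 25° C) and counted. Reactions contained 2.5 nM enzyme (5 min preincubation), 100 nM RNA and 100 nM 3H-SAM, ran 30 min in HEPES pH 7.5 buffer with KCl, MgCl2, DTT.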

Sequence of METTL3/METTL14 (Q86U44 whole entry, species assumed): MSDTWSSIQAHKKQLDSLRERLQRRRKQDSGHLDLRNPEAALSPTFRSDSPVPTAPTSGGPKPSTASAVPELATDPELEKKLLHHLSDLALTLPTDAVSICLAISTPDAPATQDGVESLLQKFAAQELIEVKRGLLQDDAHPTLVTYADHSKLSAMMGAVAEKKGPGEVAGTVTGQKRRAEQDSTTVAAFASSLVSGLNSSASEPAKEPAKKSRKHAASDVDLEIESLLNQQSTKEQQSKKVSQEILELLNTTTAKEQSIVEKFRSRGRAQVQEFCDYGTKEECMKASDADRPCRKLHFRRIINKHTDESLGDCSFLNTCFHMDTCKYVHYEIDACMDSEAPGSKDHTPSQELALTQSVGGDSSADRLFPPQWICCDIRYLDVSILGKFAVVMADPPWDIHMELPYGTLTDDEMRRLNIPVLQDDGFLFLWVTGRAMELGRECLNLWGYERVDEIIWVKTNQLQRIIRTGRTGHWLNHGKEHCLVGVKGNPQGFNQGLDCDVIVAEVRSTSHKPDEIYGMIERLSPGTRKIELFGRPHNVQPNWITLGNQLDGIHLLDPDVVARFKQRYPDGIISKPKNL
Sequence of METTL3/METTL14 (Q9HCE5 whole entry partner, species assumed): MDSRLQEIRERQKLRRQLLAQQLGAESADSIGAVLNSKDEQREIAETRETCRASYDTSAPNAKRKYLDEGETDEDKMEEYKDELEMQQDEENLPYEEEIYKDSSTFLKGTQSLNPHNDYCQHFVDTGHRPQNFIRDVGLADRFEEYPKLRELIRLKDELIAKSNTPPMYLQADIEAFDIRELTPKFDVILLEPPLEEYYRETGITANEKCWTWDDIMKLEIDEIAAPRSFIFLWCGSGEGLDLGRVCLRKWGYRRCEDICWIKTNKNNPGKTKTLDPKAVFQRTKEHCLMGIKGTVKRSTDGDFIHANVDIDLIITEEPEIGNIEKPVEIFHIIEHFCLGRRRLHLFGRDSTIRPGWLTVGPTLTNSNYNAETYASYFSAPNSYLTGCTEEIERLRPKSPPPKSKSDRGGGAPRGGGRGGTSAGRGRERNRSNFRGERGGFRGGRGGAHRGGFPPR

| Compound | IC50 |
| --- | --- |
| Cn1ccc(-c2cn([C@@H]3O[C@H](C(=O)Nc4ccon4)[C@@H](O)[C@H]3O)c3ncnc(N)c23)n1 [Compound I-171] | ≥ 1000 nM |
| Cc1ccnc(NC(=O)[C@H]2O[C@@H](n3cc(-c4ccn(C)n4)c4c(N)ncnc43)[C@H](O)[C@@H]2O)c1 [Compound I-172] | ≥ 1000 nM |
| Cn1ccc(-c2cn([C@@H]3O[C@H](C(=O)NC4CCNC(=O)C4)[C@@H](O)[C@H]3O)c3ncnc(N)c23)n1 (stereo partly shown) [Compound I-175] | ≥ 1000 nM |
| Cn1ccc(-c2cn([C@@H]3O[C@H](C(=O)N4CCNCC4)[C@@H](O)[C@H]3O)c3ncnc(N)c23)n1 [Compound I-176] | 100 to 1000 nM |
| Cn1ccc(-c2cn([C@@H]3O[C@H](C(=O)N[C@H]4CCC(=O)NC4)[C@@H](O)[C@H]3O)c3ncnc(N)c23)n1 [Compound I-179] | ≥ 1000 nM |
| Cn1ccc(-c2cn([C@@H]3O[C@H](C(=O)N[C@@H]4CCC(=O)NC4)[C@@H](O)[C@H]3O)c3ncnc(N)c23)n1 [Compound I-180] | ≥ 1000 nM |
| Cn1ccc(-c2cn([C@@H]3O[C@H](C(=O)NCCCN4CCCC4)[C@@H](O)[C@H]3O)c3ncnc(N)c23)n1 [Compound I-181] | ≥ 1000 nM |
| Cn1ccc(-c2cn([C@@H]3O[C@H](C(=O)NC4CCOCC4)[C@@H](O)[C@H]3O)c3ncnc(N)c23)n1 [Compound I-182] | ≥ 1000 nM |
| CN(C)CCCNC(=O)[C@H]1O[C@@H](n2cc(-c3ccn(C)n3)c3c(N)ncnc32)[C@H](O)[C@@H]1O [Compound I-183] | ≥ 1000 nM |
| Cn1ccc(-c2cn([C@@H]3O[C@H](C(=O)NCc4cc(F)cc(F)c4)[C@@H](O)[C@H]3O)c3ncnc(N)c23)n1 [Compound I-191] | 100 to 1000 nM |

target: PRMT5-MEP50 (Homo sapiens, UniProt O14744); assay: PRMT5 assay (3H-SAM flashplate); details: Table 4; PRMT5 biochemical assay
Method in brief: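 Radiometric methyl-transfer read-out: 3H-methyl transferred to a 3′-biotinylated, acetylated H4 peptide substrate (100 nM) from 3H-SAM (250 nM), captured on streptavidin scintillation plates. Enzyme complex 2.5 nM, pH 8.0 Tris buffer with DTT and Tween, compound preincubation 5 min, 60 min reaction stopped with excess unlabeled SAM.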

Sequence of PRMT5-MEP50 (O14744 whole entry): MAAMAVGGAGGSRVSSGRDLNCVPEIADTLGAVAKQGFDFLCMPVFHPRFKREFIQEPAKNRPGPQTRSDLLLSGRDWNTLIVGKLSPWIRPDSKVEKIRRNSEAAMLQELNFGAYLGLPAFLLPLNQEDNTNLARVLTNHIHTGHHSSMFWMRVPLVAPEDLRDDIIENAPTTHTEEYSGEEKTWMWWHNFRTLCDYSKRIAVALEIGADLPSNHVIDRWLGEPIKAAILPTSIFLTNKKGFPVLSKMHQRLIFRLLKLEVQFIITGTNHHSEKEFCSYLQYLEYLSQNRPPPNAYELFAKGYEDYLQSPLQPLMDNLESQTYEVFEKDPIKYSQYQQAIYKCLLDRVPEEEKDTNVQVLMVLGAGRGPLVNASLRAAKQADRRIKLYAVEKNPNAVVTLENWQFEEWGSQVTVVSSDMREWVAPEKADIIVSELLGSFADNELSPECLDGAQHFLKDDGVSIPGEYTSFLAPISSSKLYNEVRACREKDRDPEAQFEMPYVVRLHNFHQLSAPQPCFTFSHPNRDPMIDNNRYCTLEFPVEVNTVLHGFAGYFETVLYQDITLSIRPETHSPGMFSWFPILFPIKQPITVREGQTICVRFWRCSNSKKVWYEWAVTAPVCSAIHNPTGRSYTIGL
Sequence of PRMT5-MEP50 (Q9BQA1 whole entry partner): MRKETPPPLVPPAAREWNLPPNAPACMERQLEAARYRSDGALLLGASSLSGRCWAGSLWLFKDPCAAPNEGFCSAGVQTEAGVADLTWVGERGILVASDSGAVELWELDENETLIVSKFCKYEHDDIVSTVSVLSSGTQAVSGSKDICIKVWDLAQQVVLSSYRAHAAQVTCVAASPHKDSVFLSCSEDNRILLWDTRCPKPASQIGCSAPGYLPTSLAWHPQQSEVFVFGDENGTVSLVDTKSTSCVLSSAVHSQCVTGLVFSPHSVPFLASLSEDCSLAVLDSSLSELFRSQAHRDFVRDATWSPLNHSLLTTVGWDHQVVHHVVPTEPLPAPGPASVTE

| Compound | IC50 |
| --- | --- |
| Cn1ccc(-c2cn([C@@H]3O[C@H](C(=O)Nc4ccon4)[C@@H](O)[C@H]3O)c3ncnc(N)c23)n1 [Compound I-171] | ≥ 1000 nM |
| Cc1ccnc(NC(=O)[C@H]2O[C@@H](n3cc(-c4ccn(C)n4)c4c(N)ncnc43)[C@H](O)[C@@H]2O)c1 [Compound I-172] | ≥ 1000 nM |
| Cn1ccc(-c2cn([C@@H]3O[C@H](C(=O)NC4CCNC(=O)C4)[C@@H](O)[C@H]3O)c3ncnc(N)c23)n1 (stereo partly shown) [Compound I-175] | ≥ 1000 nM |
| Cn1ccc(-c2cn([C@@H]3O[C@H](C(=O)N4CCNCC4)[C@@H](O)[C@H]3O)c3ncnc(N)c23)n1 [Compound I-176] | 100 to 1000 nM |
| Cn1ccc(-c2cn([C@@H]3O[C@H](C(=O)N[C@H]4CCC(=O)NC4)[C@@H](O)[C@H]3O)c3ncnc(N)c23)n1 [Compound I-179] | ≥ 1000 nM |
| Cn1ccc(-c2cn([C@@H]3O[C@H](C(=O)N[C@@H]4CCC(=O)NC4)[C@@H](O)[C@H]3O)c3ncnc(N)c23)n1 [Compound I-180] | ≥ 1000 nM |
| Cn1ccc(-c2cn([C@@H]3O[C@H](C(=O)NCCCN4CCCC4)[C@@H](O)[C@H]3O)c3ncnc(N)c23)n1 [Compound I-181] | 10 to 100 nM |
| Cn1ccc(-c2cn([C@@H]3O[C@H](C(=O)NC4CCOCC4)[C@@H](O)[C@H]3O)c3ncnc(N)c23)n1 [Compound I-182] | 100 to 1000 nM |
| CN(C)CCCNC(=O)[C@H]1O[C@@H](n2cc(-c3ccn(C)n3)c3c(N)ncnc32)[C@H](O)[C@@H]1O [Compound I-183] | 10 to 100 nM |
| Cn1ccc(-c2cn([C@@H]3O[C@H](C(=O)NCc4cc(F)cc(F)c4)[C@@H](O)[C@H]3O)c3ncnc(N)c23)n1 [Compound I-191] | 100 to 1000 nM |

target: T1, FLT3 (Homo sapiens, UniProt P36888); assay: FLT3 Caliper assay; type: biochemical; details: Table 4; read-out: FLT3 Calipher assay IC50
T1 sequence (P36888 27-993): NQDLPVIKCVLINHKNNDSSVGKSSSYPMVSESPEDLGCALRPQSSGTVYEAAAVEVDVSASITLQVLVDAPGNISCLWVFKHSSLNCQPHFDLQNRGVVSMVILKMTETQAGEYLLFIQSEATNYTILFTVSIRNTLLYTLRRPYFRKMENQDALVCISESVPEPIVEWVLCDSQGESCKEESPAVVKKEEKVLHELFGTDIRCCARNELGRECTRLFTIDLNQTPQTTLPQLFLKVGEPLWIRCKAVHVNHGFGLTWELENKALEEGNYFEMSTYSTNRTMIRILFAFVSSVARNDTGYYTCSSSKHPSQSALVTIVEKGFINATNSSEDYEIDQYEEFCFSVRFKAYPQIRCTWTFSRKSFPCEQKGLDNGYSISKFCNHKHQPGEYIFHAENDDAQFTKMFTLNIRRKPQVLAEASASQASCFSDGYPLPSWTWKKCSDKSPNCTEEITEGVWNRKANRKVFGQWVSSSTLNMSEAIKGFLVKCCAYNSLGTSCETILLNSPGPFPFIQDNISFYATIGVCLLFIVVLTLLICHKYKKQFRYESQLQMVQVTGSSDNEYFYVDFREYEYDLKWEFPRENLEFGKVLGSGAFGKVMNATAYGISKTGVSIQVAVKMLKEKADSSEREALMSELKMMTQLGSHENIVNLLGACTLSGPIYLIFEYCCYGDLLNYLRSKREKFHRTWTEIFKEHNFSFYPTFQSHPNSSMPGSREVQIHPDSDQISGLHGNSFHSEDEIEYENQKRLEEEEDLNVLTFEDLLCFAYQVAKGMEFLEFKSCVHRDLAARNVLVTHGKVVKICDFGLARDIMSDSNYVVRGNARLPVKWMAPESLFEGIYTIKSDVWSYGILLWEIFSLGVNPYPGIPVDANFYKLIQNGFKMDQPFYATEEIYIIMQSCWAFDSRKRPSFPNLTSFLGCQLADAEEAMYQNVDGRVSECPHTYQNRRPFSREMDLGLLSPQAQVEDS
Protocol: (§1) FLT3/FLT3-ITD Caliper Assays
(§2) Assays were performed in a 20 μl-volume in 384-well polypropylene microplates (Perkin Elmer Proxiplate, cat. No. 6059480) at ambient temperature. Optimized 1× assay buffer was 50 mM Hepes pH 7.5, 2 mM DTT, 0.01% Tween, 0.01% BSA, 10 mM MgCl2. For compound screening FLT3 (final concentration, f.c.=0.9 nM) or FLT3-ITD (f.c.=7 nM) was added using a Multidrop Combi (ThermoFisher Scientific, Waltham, MA) and preincubated for 10 min. Reactions were started by adding fluorescein-peptide (sequence 5-FAM-EAIYAAPFAKKK-CONH2) (f.c.=300 μM) and ATP (FLT3 f.c.=97 μM FLT3-ITD f.c.=146 μM) substrates. Reactions proceeded for 60 minutes. The reactions were stopped with LabChip ProfilerPro Separation Buffer containing EDTA (f.c.=20 mM). The plates were read on a Caliper microfluidics reader (PerkinElmer, Waltham, MA).

| Compound | IC50 |
| --- | --- |
| Cn1ccc(-c2cn([C@@H]3O[C@H](C(=O)Nc4ccon4)[C@@H](O)[C@H]3O)c3ncnc(N)c23)n1 [Compound I-171] | ≥ 1000 nM |
| Cc1ccnc(NC(=O)[C@H]2O[C@@H](n3cc(-c4ccn(C)n4)c4c(N)ncnc43)[C@H](O)[C@@H]2O)c1 [Compound I-172] | ≥ 1000 nM |
| Cn1ccc(-c2cn([C@@H]3O[C@H](C(=O)NC4CCNC(=O)C4)[C@@H](O)[C@H]3O)c3ncnc(N)c23)n1 (stereo partly shown) [Compound I-175] | ≥ 1000 nM |
| Cn1ccc(-c2cn([C@@H]3O[C@H](C(=O)N4CCNCC4)[C@@H](O)[C@H]3O)c3ncnc(N)c23)n1 [Compound I-176] | ≥ 1000 nM |
| Cn1ccc(-c2cn([C@@H]3O[C@H](C(=O)N[C@H]4CCC(=O)NC4)[C@@H](O)[C@H]3O)c3ncnc(N)c23)n1 [Compound I-179] | ≥ 1000 nM |
| Cn1ccc(-c2cn([C@@H]3O[C@H](C(=O)N[C@@H]4CCC(=O)NC4)[C@@H](O)[C@H]3O)c3ncnc(N)c23)n1 [Compound I-180] | ≥ 1000 nM |
| Cn1ccc(-c2cn([C@@H]3O[C@H](C(=O)NCCCN4CCCC4)[C@@H](O)[C@H]3O)c3ncnc(N)c23)n1 [Compound I-181] | ≥ 1000 nM |
| Cn1ccc(-c2cn([C@@H]3O[C@H](C(=O)NC4CCOCC4)[C@@H](O)[C@H]3O)c3ncnc(N)c23)n1 [Compound I-182] | ≥ 1000 nM |
| CN(C)CCCNC(=O)[C@H]1O[C@@H](n2cc(-c3ccn(C)n3)c3c(N)ncnc32)[C@H](O)[C@@H]1O [Compound I-183] | ≥ 1000 nM |
| Cn1ccc(-c2cn([C@@H]3O[C@H](C(=O)NCc4cc(F)cc(F)c4)[C@@H](O)[C@H]3O)c3ncnc(N)c23)n1 [Compound I-191] | ≥ 1000 nM |

target: T2, FLT3-ITD (Homo sapiens, UniProt P36888); assay: FLT3-ITD Caliper assay; type: biochemical; details: Table 4; read-out: FLT3-ITD Calipher assay IC50
T2 sequence (P36888 1-993): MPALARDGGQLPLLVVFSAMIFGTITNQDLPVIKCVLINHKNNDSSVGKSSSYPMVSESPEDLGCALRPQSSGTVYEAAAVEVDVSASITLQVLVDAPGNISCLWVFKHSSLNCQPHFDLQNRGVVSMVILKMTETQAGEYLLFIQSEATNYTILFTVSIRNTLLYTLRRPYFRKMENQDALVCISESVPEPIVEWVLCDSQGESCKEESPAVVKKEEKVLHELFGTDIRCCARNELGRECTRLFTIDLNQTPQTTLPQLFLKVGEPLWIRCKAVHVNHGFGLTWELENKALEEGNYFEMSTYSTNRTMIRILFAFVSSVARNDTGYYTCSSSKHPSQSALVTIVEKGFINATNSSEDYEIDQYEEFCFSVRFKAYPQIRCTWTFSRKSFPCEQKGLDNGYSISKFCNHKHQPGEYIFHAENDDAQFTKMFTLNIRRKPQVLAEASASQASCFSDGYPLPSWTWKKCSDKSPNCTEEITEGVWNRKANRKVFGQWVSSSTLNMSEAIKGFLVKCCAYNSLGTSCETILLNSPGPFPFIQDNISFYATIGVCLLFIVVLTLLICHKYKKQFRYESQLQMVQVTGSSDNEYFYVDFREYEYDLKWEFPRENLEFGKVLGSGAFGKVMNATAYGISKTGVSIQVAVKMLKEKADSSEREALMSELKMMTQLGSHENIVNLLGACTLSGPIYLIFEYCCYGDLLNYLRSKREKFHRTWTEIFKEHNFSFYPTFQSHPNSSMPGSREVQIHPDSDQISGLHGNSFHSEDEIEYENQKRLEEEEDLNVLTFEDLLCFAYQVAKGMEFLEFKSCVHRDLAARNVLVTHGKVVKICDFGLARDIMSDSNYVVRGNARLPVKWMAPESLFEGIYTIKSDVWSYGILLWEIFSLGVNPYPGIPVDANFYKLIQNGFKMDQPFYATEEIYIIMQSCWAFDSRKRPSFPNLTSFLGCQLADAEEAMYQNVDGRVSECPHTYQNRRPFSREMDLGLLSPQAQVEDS
Protocol: as §1, §2

| Compound | IC50 |
| --- | --- |
| Cn1ccc(-c2cn([C@@H]3O[C@H](C(=O)Nc4ccon4)[C@@H](O)[C@H]3O)c3ncnc(N)c23)n1 [Compound I-171] | ≥ 1000 nM |
| Cc1ccnc(NC(=O)[C@H]2O[C@@H](n3cc(-c4ccn(C)n4)c4c(N)ncnc43)[C@H](O)[C@@H]2O)c1 [Compound I-172] | ≥ 1000 nM |
| Cn1ccc(-c2cn([C@@H]3O[C@H](C(=O)NC4CCNC(=O)C4)[C@@H](O)[C@H]3O)c3ncnc(N)c23)n1 (stereo partly shown) [Compound I-175] | ≥ 1000 nM |
| Cn1ccc(-c2cn([C@@H]3O[C@H](C(=O)N4CCNCC4)[C@@H](O)[C@H]3O)c3ncnc(N)c23)n1 [Compound I-176] | ≥ 1000 nM |
| Cn1ccc(-c2cn([C@@H]3O[C@H](C(=O)N[C@H]4CCC(=O)NC4)[C@@H](O)[C@H]3O)c3ncnc(N)c23)n1 [Compound I-179] | ≥ 1000 nM |
| Cn1ccc(-c2cn([C@@H]3O[C@H](C(=O)N[C@@H]4CCC(=O)NC4)[C@@H](O)[C@H]3O)c3ncnc(N)c23)n1 [Compound I-180] | ≥ 1000 nM |
| Cn1ccc(-c2cn([C@@H]3O[C@H](C(=O)NCCCN4CCCC4)[C@@H](O)[C@H]3O)c3ncnc(N)c23)n1 [Compound I-181] | ≥ 1000 nM |
| Cn1ccc(-c2cn([C@@H]3O[C@H](C(=O)NC4CCOCC4)[C@@H](O)[C@H]3O)c3ncnc(N)c23)n1 [Compound I-182] | ≥ 1000 nM |
| CN(C)CCCNC(=O)[C@H]1O[C@@H](n2cc(-c3ccn(C)n3)c3c(N)ncnc32)[C@H](O)[C@@H]1O [Compound I-183] | ≥ 1000 nM |
| Cn1ccc(-c2cn([C@@H]3O[C@H](C(=O)NCc4cc(F)cc(F)c4)[C@@H](O)[C@H]3O)c3ncnc(N)c23)n1 [Compound I-191] | ≥ 1000 nM |
